Assay type in all cases: cell-based
Assay [1] addresses T1, human TRPM2 (hTRPM2) channel (Homo sapiens, UniProt O94759).
T1 construct: expressed in transfected cells; host or cells: HEK293 cells with tetracycline-inducible expression of hTRPM2 (HEK-hTRPM2)
The experiment in a line: Single-channel outside-out recordings from HEK-hTRPM2 cells. Particulars: FFA co-application, n = 12. The method, then:
(§1) Human embryonic kidney 293 (HEK293) cells with tetracycline-inducible expression of human TRPM2 channel (hTRPM2) were cultured in a mixed medium containing DMEM/ F-12 (Gibco, USA) and 10% fetal bovine serum (Gibco, USA) as well as blasticidin (50 μg/ml, Invivogen, USA) and zeocin (0.4 mg/ml, Invivogen, USA). The expression of hTRPM2 was induced by substituting blasticin and zeocin for tetracycline (1 μg/ml, Sigma, USA) 24-48 hours before use. TRPM2 channel mutants were transiently expressed in HEK293T cells by transfection with using Lipofectamine 3000. Briefly, HEK293T cells were transiently transfected with cDNAs encoding the mutant hTRPM2 channel. The cDNA for GFP was co-transfected as a marker for identification of the transfected cells for electrophysiological experiments 16-24 hours after transfection. All the cells were seeded on 96-well coverslips (3 x 3 mm, WHB) and cultured at 37 °C under a humidified atmosphere containing 5% CO2.
Coronal cortical slices were transferred into the recording chamber and continuously perfused at room temperature with ACSF oxygenated with 95% O2 and 5% CO2. Cortical pyramidal neurons were visualized by an upright microscope (Carl Zeiss) equipped with a CCD monochrome video camera (IR-1000, DAGE-MTI) and identified by their localization in Layer V. Electrophysiology data were sampled (50 kHz) and lowpass filtered (5kHz four-pole Bessel filter) by a MultiClamp 700B dual channel amplifier (Molecular Devices). The patch electrodes were pulled from borosilicate capillary glass (1.5 mm outer diameter; 0.86 mm inner diameter; World Precision Instruments, USA) with a horizontal multi-step micropipette puller (Model, P-1000, Sutter Instrument). […] After forming >1 GΩ resistance seal in cell-attached configuration, we broke the patch membrane and kept the neurons at -64 mV and then performed whole-cell current-clamp recordings. Cells requiring holding current > -150 pA at -60 mV were discarded. The resting membrane potential (Vrest) was tested in I = 0 configuration. […] For whole-cell or single channel recordings from transfected HEK-293T cells, the coverslips were placed in a culture dish (35 × 35 mm, Sorfa) containing HEPES based extracellular solution (ECS) and recorded by patch-clamp technique. […] Each coverslip was recorded only once with different drug exposures. […] The excised patches were voltage-clamped from -80 mV to +80 mV (in 20 mV increasement) to generate the current-voltage (I-V) relationship of single channel currents from which their main conductance was calculated from the slope by linear regression of the mean current amplitude at different potentials. […]

In a further assay the target is T2, hTRPM2 R302A/R358A (Homo sapiens, UniProt O94759, R302A/R358A).
T2 construct: expressed in transfected cells; host or cells: HEK293T cells, transient transfection (Lipofectamine 3000), GFP cDNA co-transfected as a separate marker
The experiment in a line: Whole-cell patch-clamp, N-terminal ADPR-binding site mutant. Particulars: ADPR. The method, then:
as §1, with “All the cells were seeded on 96-well coverslips (3 x 3 mm, WHB) and cultured at 37 °C under a humidified atmosphere containing 5% CO2.” left out
(§2) Coronal cortical slices were transferred into the recording chamber and continuously perfused at room temperature with ACSF oxygenated with 95% O2 and 5% CO2. […] For whole-cell or single channel recordings from transfected HEK-293T cells, the coverslips were placed in a culture dish (35 × 35 mm, Sorfa) containing HEPES based extracellular solution (ECS) and recorded by patch-clamp technique. […] Each coverslip was recorded only once with different drug exposures. […]

For a further assay, the target named is T3, TRPM2-ΔN/ΔC (Homo sapiens, UniProt O94759).
T3 construct: expressed in transfected cells; host or cells: HEK293T cells, transient transfection, GFP cDNA co-transfected as a separate marker
The experiment in a line: Whole-cell patch-clamp, truncation mutant. To be noted: ADPR 500 μM. The method, then: as §1, with “All the cells were seeded on 96-well coverslips (3 x 3 mm, WHB) and cultured at 37 °C under a humidified atmosphere containing 5% CO2.” left out
as §2
On the technique in general: In patch-clamp work, channel activity is measured electrically.

For assay [2], the target named is T4, hTRPM2 K928A/D1069A double mutant (Homo sapiens, UniProt O94759, D1069A/K928A).
T4 construct: expressed in transfected cells; host or cells: HEK293T cells, transient transfection, GFP cDNA co-transfected as a separate marker
The experiment in a line: Whole-cell patch-clamp, bilirubin-binding cavity double mutant. To be noted: intracellular ADPR 500 μM. The method, then:
as §1, with “All the cells were seeded on 96-well coverslips (3 x 3 mm, WHB) and cultured at 37 °C under a humidified atmosphere containing 5% CO2.” left out
as §2

This note sets out measurements from paper PMC10191619, “Bilirubin gates the TRPM2 channel as a direct agonist to exacerbate ischemic brain damage” (Neuron, 2023).

T3 sequence (O94759 1-1449 isoform O94759-2): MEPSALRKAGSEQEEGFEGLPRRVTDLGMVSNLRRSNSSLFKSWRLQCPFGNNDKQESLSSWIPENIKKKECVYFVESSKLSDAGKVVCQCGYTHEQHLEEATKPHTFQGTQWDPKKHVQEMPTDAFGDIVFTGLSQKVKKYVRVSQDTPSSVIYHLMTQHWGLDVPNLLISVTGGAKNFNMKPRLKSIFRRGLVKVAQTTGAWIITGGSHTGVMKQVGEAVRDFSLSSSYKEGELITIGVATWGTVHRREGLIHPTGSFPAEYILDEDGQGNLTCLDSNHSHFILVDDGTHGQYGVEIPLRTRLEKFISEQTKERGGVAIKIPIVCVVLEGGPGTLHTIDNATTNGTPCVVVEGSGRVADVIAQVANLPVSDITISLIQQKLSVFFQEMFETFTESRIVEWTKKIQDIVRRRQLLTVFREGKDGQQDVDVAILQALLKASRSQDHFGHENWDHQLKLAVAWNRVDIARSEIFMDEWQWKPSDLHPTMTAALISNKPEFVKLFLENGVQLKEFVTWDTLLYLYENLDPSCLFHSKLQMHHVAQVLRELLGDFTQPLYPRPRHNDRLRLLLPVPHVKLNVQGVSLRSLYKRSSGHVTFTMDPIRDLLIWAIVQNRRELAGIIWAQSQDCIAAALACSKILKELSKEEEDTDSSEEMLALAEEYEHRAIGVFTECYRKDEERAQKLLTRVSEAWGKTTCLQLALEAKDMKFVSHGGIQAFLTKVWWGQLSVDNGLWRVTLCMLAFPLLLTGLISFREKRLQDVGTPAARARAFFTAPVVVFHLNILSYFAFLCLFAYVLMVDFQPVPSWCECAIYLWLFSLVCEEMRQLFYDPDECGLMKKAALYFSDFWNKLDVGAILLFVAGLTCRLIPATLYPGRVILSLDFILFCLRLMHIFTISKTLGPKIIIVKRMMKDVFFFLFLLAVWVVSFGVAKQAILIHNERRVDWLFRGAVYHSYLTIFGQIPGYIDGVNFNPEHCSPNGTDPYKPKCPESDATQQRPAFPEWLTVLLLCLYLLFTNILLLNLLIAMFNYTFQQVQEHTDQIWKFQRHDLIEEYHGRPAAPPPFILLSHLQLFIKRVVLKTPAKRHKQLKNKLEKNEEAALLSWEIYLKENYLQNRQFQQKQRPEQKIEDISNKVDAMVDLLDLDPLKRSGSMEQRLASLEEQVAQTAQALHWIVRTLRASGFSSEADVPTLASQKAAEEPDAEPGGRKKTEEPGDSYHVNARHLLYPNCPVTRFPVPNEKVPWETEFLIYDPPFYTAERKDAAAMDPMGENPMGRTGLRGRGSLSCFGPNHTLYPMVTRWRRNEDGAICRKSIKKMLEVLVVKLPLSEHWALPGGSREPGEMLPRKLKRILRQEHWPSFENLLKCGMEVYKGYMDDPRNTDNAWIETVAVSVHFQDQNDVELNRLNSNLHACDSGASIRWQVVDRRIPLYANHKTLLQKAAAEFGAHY
T2 sequence (O94759 whole entry R302A/R358A): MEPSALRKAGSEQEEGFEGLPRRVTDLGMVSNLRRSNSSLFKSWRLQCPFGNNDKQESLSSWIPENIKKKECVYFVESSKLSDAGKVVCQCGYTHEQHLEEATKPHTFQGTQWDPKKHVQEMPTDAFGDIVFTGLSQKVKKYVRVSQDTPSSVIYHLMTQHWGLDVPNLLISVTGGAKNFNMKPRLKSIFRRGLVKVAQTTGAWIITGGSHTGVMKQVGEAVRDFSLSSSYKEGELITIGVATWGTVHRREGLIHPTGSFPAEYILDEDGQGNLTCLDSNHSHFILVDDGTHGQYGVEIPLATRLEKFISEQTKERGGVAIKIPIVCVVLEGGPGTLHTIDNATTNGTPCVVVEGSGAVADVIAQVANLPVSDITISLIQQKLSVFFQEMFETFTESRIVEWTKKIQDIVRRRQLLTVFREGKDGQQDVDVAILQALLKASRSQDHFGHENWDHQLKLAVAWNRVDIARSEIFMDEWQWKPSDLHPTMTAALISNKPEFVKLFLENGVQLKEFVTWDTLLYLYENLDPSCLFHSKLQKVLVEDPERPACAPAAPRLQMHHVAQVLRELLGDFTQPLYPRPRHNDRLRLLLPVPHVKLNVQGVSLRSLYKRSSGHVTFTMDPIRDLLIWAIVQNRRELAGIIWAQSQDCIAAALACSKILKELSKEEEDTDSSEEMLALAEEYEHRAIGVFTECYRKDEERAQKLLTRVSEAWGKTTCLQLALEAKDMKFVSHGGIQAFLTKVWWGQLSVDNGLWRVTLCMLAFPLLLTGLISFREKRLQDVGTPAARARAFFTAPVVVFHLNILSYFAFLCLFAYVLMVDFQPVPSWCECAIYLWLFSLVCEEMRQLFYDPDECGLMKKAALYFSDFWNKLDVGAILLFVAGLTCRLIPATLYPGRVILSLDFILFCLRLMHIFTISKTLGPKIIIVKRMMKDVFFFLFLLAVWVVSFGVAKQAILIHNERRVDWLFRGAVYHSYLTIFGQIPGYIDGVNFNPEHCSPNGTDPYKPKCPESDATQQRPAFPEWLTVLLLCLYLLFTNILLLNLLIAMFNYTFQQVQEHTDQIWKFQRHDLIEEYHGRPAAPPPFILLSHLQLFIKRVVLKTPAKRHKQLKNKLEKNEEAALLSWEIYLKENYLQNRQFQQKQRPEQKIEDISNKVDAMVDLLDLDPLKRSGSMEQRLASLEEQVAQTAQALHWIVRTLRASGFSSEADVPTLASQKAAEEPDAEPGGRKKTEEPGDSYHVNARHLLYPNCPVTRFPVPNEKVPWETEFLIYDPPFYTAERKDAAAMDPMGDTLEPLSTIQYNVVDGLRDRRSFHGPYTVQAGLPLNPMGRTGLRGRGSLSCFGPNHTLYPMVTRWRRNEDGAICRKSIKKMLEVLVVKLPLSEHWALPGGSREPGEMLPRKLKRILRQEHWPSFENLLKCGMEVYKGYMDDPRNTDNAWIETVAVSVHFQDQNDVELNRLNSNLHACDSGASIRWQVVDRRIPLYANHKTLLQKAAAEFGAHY
T4 sequence (O94759 whole entry K928A/D1069A): as the sequence (O94759 whole entry R302A/R358A) above, with A302R, A358R, K928A, D1069A counted along it
T1 sequence (O94759 whole entry): as the sequence (O94759 whole entry R302A/R358A) above, with A302R, A358R counted along it

Consider `O=C(O)c1ccccc1Nc1cccc(C(F)(F)F)c1` [FFA, flufenamic acid], for which the “bilirubin-increased opening probability (Po)” value in assay [1] is “reversed”.

Turning to `Nc1ncnc2c1ncn2C1O[C@H](COP(=O)([O-])OP(=O)(O)OC[C@H]2OC(O)[C@H](O)[C@@H]2O)[C@@H](O)[C@H]1O.O.O.[Na+]` (stereo partly shown) [ADPR, Adenosine 5ʹ-diphosphoribose sodium salt], the “activation of mutant TRPM2 currents” value at hTRPM2 R302A/R358A is “failed to evoke currents”; at TRPM2-ΔN/ΔC, “eliminated the activation”; in assay [2], “perfectly retained their agonist capacity”.
